# Tests used:
# [1] = molecular target: Src kinase SH3 domain protein (Homo sapiens (Human), UniProt P12931); assay: Surface plasmon resonance (SPR) determination of dissociation constants with SH3 protein; format: binding; details: SH3 protein coupled to CM5 chip
# Procedure: 1. Experimental method: Surface plasmon resonance test was carried out on BIACORE T200 instrument (GE Company). Fresh purified grade Src kinase SH3 domain protein (concentration 2 mg/ml) was diluted to 0.1 mg/ml with 10 mM CH3COONa (pH 4.2) and then SH3 protein was coupled to the CM5 chip by standard amino coupling methods. The compounds of the invention were diluted in a gradient using a buffer solution (20 mM Tris-HCl, PH 8.0, 100 mM NaCl) for 60 seconds and dissociated for 120 seconds at a flow rate of […], respectively. The changes in response values over time were recorded and analyzed by the BIA Evaluation Software (GE Healthcare) program to obtain the dissociation constants KD for the different compounds with SH3 protein.
# 2. Experimental results and conclusions: The dissociation constants KD of different compounds and SH3 protein were described in Table 2, and the surface plasmon resonance (SPR) experimental results of some compounds were shown in FIG. 1.
# [2] = system: platelets on solid phase fibrinogen; assay: Effect of compound on platelet stretching on solid phase fibrinogen; format: cell-based; details: 1 h, washed platelets, incubated 60 min at 37° C., read-out: Concentration range for compounds that inhibit platelet stretching on fibrinogen
# Procedure: 1. Experimental method: Firstly, 50 μl fibrinogen (0.1M, diluted with pH 8.3 sodium bicarbonate, 20 μg/ml) was added to 96-well plate, and coated overnight at 4° C. After being washed by PBS for 3 times in the morning, sealed with bovine serum albumin (20 mg/ml) at 37° C. for 60 min, then 100 μl of washed platelet suspension was taken, and added into compounds in each group to make the final concentration 250 μM, and incubated at 37° C. for 60 min. 50 μl of incubated platelets were added to 96-well plate, adhered in a temperature box at 37° C. for 60 min, unadhered platelets were removed by PBS washing for 3 times, and adhered platelets were stably fixed with 4% paraformaldehyde, and washed with PBS for 3 times. Then the platelet membrane was perforated with 0.5% Triton X-100, and then the platelet was stained with 0.5 μg/ml phalloidin-rhodamine for 60 min at 37° C. and washed 3 times (10 min each) with PBS.
# 2. Experimental results and conclusions: The concentration of different compounds on platelet stretching on fibrinogen was shown in Table 3, and the inhibitory effect of some compounds on platelet stretching was shown in FIG. 2.
# Sequence of Src kinase SH3 domain protein (P12931 whole entry, looked up, the tested form may be a part): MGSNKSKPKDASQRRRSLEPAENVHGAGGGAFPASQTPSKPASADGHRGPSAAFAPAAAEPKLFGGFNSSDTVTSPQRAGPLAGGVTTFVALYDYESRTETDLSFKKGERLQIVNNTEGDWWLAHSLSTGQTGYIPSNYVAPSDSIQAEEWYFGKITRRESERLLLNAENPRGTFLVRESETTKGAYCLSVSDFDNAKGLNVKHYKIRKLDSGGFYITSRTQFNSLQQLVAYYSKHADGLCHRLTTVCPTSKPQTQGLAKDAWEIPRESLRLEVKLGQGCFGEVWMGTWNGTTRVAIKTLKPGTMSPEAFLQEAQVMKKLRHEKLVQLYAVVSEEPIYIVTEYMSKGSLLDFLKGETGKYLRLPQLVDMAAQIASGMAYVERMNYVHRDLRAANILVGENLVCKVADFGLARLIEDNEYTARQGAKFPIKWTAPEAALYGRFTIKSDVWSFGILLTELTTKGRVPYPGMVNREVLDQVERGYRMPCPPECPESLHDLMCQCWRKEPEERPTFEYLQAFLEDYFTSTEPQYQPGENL
Compound,Kd [1],minimal effective concentration [2]
CCOC(=O)c1c(CNC(=N)N)n(C)c2ccc(OC)nc12 [SYY-C001],< 1000 nM,10 to 100 µM
CCOC(=O)c1c(CNC(=N)N)n(C)c2ncccc12 [SYY-C002],1000 to 10000 nM,100 to 250 µM
CCOC(=O)c1c(CNC(=N)N)n(C)c2ncc(OC)cc12 [SYY-C003],< 1000 nM,10 to 100 µM
COc1ccc2c(n1)c(C#N)c(CNC(=N)N)n2C [SYY-C004],1000 to 10000 nM,100 to 250 µM
COc1ccc2c(n1)c(C(N)=O)c(CNC(=N)N)n2C [SYY-C005],1000 to 10000 nM,100 to 250 µM
CCOC(=O)c1c(CNC(=N)N)n(C)c2ccc(O)nc12 [SYY-C006],< 1000 nM,10 to 100 µM
CCOC(=O)c1c(CNC(=N)N)n(C)c2ccc(OC3CCCC3)nc12 [SYY-C007],< 1000 nM,10 to 100 µM
CCOC(=O)c1c(CNC(=N)N)n(C)c2cc(Br)c(OC3CCCC3)nc12 [SYY-C008],10000 to 100000 nM,100 to 250 µM
CCOC(=O)c1c(CNC(=N)N)n(C)c2ncc(O)cc12 [SYY-C009],< 1000 nM,10 to 100 µM
CCOC(=O)c1c(CNC(=N)N)n(C)c2ncc(OC3CCCC3)cc12 [SYY-C010],10000 to 100000 nM,10 to 100 µM
CCOC(=O)c1c(CNC(=N)N)n(C)c2cc(Br)cnc12 [SYY-C014],< 1000 nM,10 to 100 µM
CCOC(=O)c1c(CNC(=N)N)n(C)c2cc(Br)ccc12 [SYY-C015],< 1000 nM,10 to 100 µM
CCOC(=O)c1c(CNC(=N)N)n(C)c2ccccc12 [SYY-C016],10000 to 100000 nM,10 to 100 µM
CCOC(=O)c1c(CNC(=N)N)n(C)c2ccc(Br)cc12 [SYY-C017],< 1000 nM,10 to 100 µM
CCOC(=O)c1c(CNC(=N)N)n(C)c2nc(Cl)ccc12 [SYY-C020],1000 to 10000 nM,100 to 250 µM
CCOC(=O)c1c(CNC(=N)N)n(C)c2cc(Br)ncc12 [SYY-C022],1000 to 10000 nM,100 to 250 µM
CCOC(=O)c1c(CNC(=N)N)n(C)c2cc(-c3ccccc3)ccc12 [SYY-C023],10000 to 100000 nM,10 to 100 µM
CCOC(=O)c1c(CNC(=N)N)n(C)c2cc(C3=CCCC3)ccc12 [SYY-C024],< 1000 nM,10 to 100 µM
CCOC(=O)c1c(CNC(=N)N)n(C)c2cc(C3CCCC3)ccc12 [SYY-C025],< 1000 nM,10 to 100 µM
CCOC(=O)c1c(CNC(=N)N)n(C)c2cccnc12 [SYY-C026],1000 to 10000 nM,100 to 250 µM
CCOC(=O)c1c(CNC(=N)N)n(C)c2ccc(-c3ccccc3)cc12 [SYY-C028],< 1000 nM,10 to 100 µM
CCOC(=O)c1c(CNC(=N)N)n(C)c2c1ccc1ccccc12 [SYY-C029],< 1000 nM,10 to 100 µM
CCOC(=O)c1c(CNC(=N)N)n(-c2ccccc2)c2ccccc12 [SYY-C030],10000 to 100000 nM,100 to 250 µM
CCOC(=O)c1c(CSC(=N)N)n(-c2ccccc2)c2ccccc12 [SYY-C031],< 1000 nM,10 to 100 µM
CCNC(=N)NCc1c(C(=O)OCC)c2nc(OC)ccc2n1C [SYY-C032],< 1000 nM,10 to 100 µM
CCOC(=O)c1c(CNC(=N)N)n(C)c2ccncc12 [SYY-C034],1000 to 10000 nM,100 to 250 µM
CCOC(=O)c1c(CNC(=N)N)n(C)c2cnccc12 [SYY-C035],1000 to 10000 nM,100 to 250 µM

Compound,Kd [1],minimal effective concentration [2]
COc1cnc2c(c1)c(C(N)=O)c(CNC(=N)N)n2C [SYY-C036],–,10 to 100 µM
CCOC(=O)c1c(CNC(=N)N)n(C)c2ccc(C3=CCCC3)cc12 [SYY-C037],1000 to 10000 nM,100 to 250 µM
CCOC(=O)c1c(CNC(=N)N)n(C)c2ccc(C3CCCC3)cc12 [SYY-C039],< 1000 nM,10 to 100 µM
CCOC(=O)c1c(CNC(=N)N)n(C)c2cc(-c3cccc4ccccc34)ccc12 [SYY-C040],< 1000 nM,10 to 100 µM
CCOC(=O)c1c(CNC(=N)N)n(C)c2cc(-c3ccc4ccccc4c3)ccc12 [SYY-C041],10000 to 100000 nM,100 to 250 µM
CCOC(=O)c1c(CSC(=N)N)n(C)c2cc(-c3cccc4ccccc34)ccc12 [SYY-C042],1000 to 10000 nM,10 to 100 µM
CCOC(=O)c1c(CSC(=N)N)n(C)c2cc(-c3ccc4ccccc4c3)ccc12 [SYY-C043],1000 to 10000 nM,100 to 250 µM
CCOC(=O)c1c(CSC(=N)N)n(C)c2cc(Cc3ccccc3)ccc12 [SYY-C045],< 1000 nM,10 to 100 µM
CCOC(=O)c1c(CNC(=N)N)n(C)c2cc(C3=CCCCCC3)ccc12 [SYY-C046],10000 to 100000 nM,100 to 250 µM
CCOC(=O)c1c(CNC(=N)N)n(C)c2cc(C3CCCCCC3)ccc12 [SYY-C047],< 1000 nM,10 to 100 µM
CCOC(=O)c1c(CNC(=N)N)n(C)c2cc(C3=CCCCC3)ccc12 [SYY-C048],10000 to 100000 nM,10 to 100 µM
CCOC(=O)c1c(CNC(=N)N)n(C)c2cc(C3CCCCC3)ccc12 [SYY-C049],< 1000 nM,10 to 100 µM
CCOC(=O)c1c(CSC(=N)N)n(C)c2cc(C3CCCCC3)ccc12 [SYY-C050],< 1000 nM,10 to 100 µM
CCOC(=O)c1c(CSC(=N)N)n(C)c2cc(C3=CCCCC3)ccc12 [SYY-C051],1000 to 10000 nM,100 to 250 µM
CCOC(=O)c1c(CSC(=N)N)n(C)c2cc(C3=CCCCCC3)ccc12 [SYY-C052],1000 to 10000 nM,100 to 250 µM
CCOC(=O)c1c(CSC(=N)N)n(C)c2cc(C3CCCCCC3)ccc12 [SYY-C053],< 1000 nM,10 to 100 µM
CCOC(=O)c1c(CNC(=N)N)n(C)c2cc(OC3CCCC3)ccc12 [SYY-C054],< 1000 nM,10 to 100 µM
CCOC(=O)c1c(CSC(=N)N)n(C)c2cc(C3CCCc4ccccc43)ccc12 (stereo not shown) [SYY-C055],< 1000 nM,10 to 100 µM
CCOC(=O)c1c(CSC(=N)N)n(C)c2cc(C3CCC(F)(F)CC3)ccc12 [SYY-C056],10000 to 100000 nM,100 to 250 µM
CCOC(=O)c1c(CNC(=N)N)n(C)c2cc(C3CCCc4ccccc43)ccc12 (stereo not shown) [SYY-C057],< 1000 nM,10 to 100 µM
CCOC(=O)c1c(CSC(=N)N)n(C)c2cc(OC3CCCC3)ccc12 [SYY-C058],10000 to 100000 nM,100 to 250 µM
CCOC(=O)c1c(CSC(=N)N)n(C)c2cc(Oc3ccccc3)ccc12 [SYY-C059],< 1000 nM,10 to 100 µM
CCOC(=O)c1c(CNC(=N)N)n(C)c2cc(C3CCC(F)(F)CC3)ccc12 [SYY-C060],< 1000 nM,10 to 100 µM
CCOC(=O)c1c(CSC(=N)N)n(C)c2cc(OC3CCCCC3)ccc12 [SYY-C061],10000 to 100000 nM,10 to 100 µM
CCOC(=O)c1c(CNC(=N)N)n(C)c2cc(C3CC4CCC3C4)ccc12 (stereo not shown) [SYY-C069],–,10 to 100 µM
CCOC(=O)c1c(CNC(=N)N)n(C)c2cc(-c3cccc4ccc(F)cc34)ccc12 [SYY-C094],< 1000 nM,–

# Reference: patent publication US20250289812A1, “COMPOUND FOR TREATING THROMBOTIC DISEASES” (SHANGHAI INSTITUTE OF MATERIA MEDICA, CHINESE ACADEMY OF …, priority 2020, published 2025)
